These are literature values, as cited in patent publication US20030091531A1, “Method and composition for insect and animal control” (priority 2001, published 2003).

For data set [1] the following is noted: classified by the EPA.
For data set [2] the following is noted: unstabilised active; degrades rapidly under ultraviolet light, water, oxygen and soil microbes.

The structures appear in SMILES notation.

In the case of `CNC(=O)CSP(=S)(OC)OC` [Dimethoate, dimethoate], the EPA carcinogen classification result in data set [1] is recorded as “group 3 carcinogen”.
For `CCCCCCCCCC(C)=O` [methyl nonyl ketone], the shelf life result in data set [2] is listed as “twelve”.
